Active and inactive are the calls of the source. The rule behind the calls is not given here.
What was measured:
[1] = biological target: T1, Acetylcholinesterase (Bos taurus) (UniProt P23795); test: Compound was tested for acetylcholinesterase inhibition at concentration uM; No Inhibition
T1 sequence (whole entry): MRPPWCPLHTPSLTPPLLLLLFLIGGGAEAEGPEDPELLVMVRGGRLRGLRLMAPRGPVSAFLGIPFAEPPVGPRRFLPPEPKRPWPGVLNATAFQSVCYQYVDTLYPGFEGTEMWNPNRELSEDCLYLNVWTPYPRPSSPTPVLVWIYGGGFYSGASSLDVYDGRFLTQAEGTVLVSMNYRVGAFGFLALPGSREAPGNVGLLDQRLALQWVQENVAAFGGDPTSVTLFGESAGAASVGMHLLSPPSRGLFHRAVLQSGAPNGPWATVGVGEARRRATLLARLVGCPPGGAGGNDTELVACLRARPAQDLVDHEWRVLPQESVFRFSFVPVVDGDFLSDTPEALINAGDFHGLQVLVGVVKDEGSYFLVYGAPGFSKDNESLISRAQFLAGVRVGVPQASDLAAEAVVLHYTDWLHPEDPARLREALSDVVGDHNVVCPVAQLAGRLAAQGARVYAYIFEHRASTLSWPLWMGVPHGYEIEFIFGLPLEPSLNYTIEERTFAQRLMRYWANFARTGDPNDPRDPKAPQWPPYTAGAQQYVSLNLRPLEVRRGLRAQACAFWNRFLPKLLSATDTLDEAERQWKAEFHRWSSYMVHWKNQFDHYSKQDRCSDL

[2] = biological target: T1, Acetylcholinesterase (Bos taurus); test: Compound was tested for acetylcholinesterase inhibitory activity at concentration uM; Inactive

Row | Structure (SMILES) | inhibition [1] | inhibition [2]
1 | C/C=C1\C2C=C(C)C[C@]1(N)c1ccc(O)c(O)c1C2 | inactive | 
2 | C/C=C1\C2C=C(C)C[C@]1(N)c1ccc(O)cc1C2 |  | inactive

Source: ChEMBL document CHEMBL1131362, “Synthesis and anticholinesterase activity of huperzine A analogues containing phenol and catechol replacements for the pyridone ring” (Bioorg Med Chem Lett, 1998)
